Patent publication US20210130549A1, “IPN hydrogel for preparation and application” (EASTING BIOTECHNOLOGY COMPANY LIMITED, priority 2019, published 2021)

Assay: Hydrophilic drug release from drug-containing IPN hydrogel in sustained-release solution (HPLC, 272 nm)
Type: physicochemical
Details: from release curve FIG. 4; drug-loaded IPN hydrogel; sampling 30 minutes to 72 hours
Method: The drug-containing hydrogel was placed in a sustained-release solution for drug release testing and taking the samples from sustained-release solution within a fixed time.
Taking the samples with fixed time and test releasing concentration. The sampling time is 30 minutes, 60 minutes, 90 minutes, 180 minutes, 8 hours, 24 hours, 48 hours, and 72 hours.
The subsequent drug concentration was analyzed by high performance liquid chromatography (HPLC). The water-based drug used caffeine for drug release, and the absorption wavelength of caffeine was 272 nm for measurement.

Compound: Cn1c(=O)c2c(ncn2C)n(C)c1=O [caffeine]
- release amount of caffeine in water: ≥ 40%
